Data: ChEMBL document CHEMBL1201862, “PubChem BioAssay data set” (2004)
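Assay format: 96-well plates, 48-hour exposure. GI50 marks 50% less growth.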 Activity calls are given as the source filed them. Cut-off read from the data, not from the text of the source: active = GI50 up to about 1.1 µM and inactive = higher. Square brackets hold non-standard residues; d marks the D form. Peptide text beside a SMILES is read from it. * marks the point of attachment. X26 = COC1=CC(=O)N(C(=O)[C@@H](O*)C(C)C)[C@H]1Cc1ccccc1; NMeV = CN[C@H](C(=O)O)C(C)C; Hexanoyl = CCCCCC(=O)*

How the values were obtained:
Experiment in all cases: inhibition of tumour cell growth, NCI panel, 48 h
[1] = system: BT-549
[2] = system: DLD-1
[3] = system: DMS-114
[4] = system: HOP-18
[5] = system: KM-20L2
[6] = system: LXFL 529
[7] = system: SNB-78

Compound	GI50 [1]	further results
Cc1cccc2sc(NC(=O)c3cc([N+](=O)[O-])ccc3Cl)nc12	2.44 µM (inactive)	–
O=C(COc1ccc(OCC(=O)N2C(=O)CC/C2=N\c2ccc(Cl)cc2)cc1)N1C(=O)CS/C1=N\c1ccc(Cl)cc1	57.4 µM (inactive)	–
C=C1C(=O)OC2C1C(OC(=O)/C(C)=C/C)CC1(C)C(=O)CCC(=C)C21 (centres undefined)	6.27 µM (inactive)	–
CCOC(=O)c1cn2c(n1)sc1c(Cl)c(Cl)ccc12	33 µM (inactive)	–
Nc1ccccc1N/C=C\C(=O)C(Cl)(Cl)Cl	22.9 µM (inactive)	–
Oc1ncnc2c1CCCN2	–	GI50 [2]: > 100 µM (inactive); GI50 [3]: > 100 µM (inactive); GI50 [4]: 16.5 µM (inactive); GI50 [5]: > 100 µM (inactive); GI50 [6]: > 100 µM (inactive); GI50 [7]: > 100 µM (inactive)
CCCCCC(=O)N[C@H](C(=O)N[C@H](C(=O)N(C)[C@H](C(=O)N1CCC[C@H]1C(=O)N1CCC[C@H]1C(=O)O[C@H](C(=O)N1C(=O)C=C(OC)[C@@H]1Cc1ccccc1)C(C)C)C(C)C)C(C)C)C(C)C (Hexanoyl-VV[NMeV]PP-X26)	59.8 µM (inactive)	–
COc1ccc(-c2csc(Cc3nc4ccccc4c(=O)n3-c3ccc(Cl)cc3)n2)cc1	45 µM (inactive)	–
COc1ccc(Nc2nnc(CCCCCCCCc3nnc(Nc4ccc(OC)cc4)o3)o2)cc1	80.9 µM (inactive)	–
Cl/C(=C\C=N\c1ccc(I)cc1)c1ccc2ccccc2c1	16.9 µM (inactive)	–
CC(C)c1cc2c(cc1S(=O)(=O)O)[C@@]1(C)CCC[C@@](C)(C(=O)O)C1CC2 (some centres undefined)	> 100 µM (inactive)	–
OCC1OC(n2cnc3c(Cl)nc(Nc4ccc(Cl)c(Cl)c4)nc32)CC1O (centres undefined)	9.98 µM (inactive)	–
COc1ccc(Nc2nc3ccc(C(F)(F)F)cc3nc2C(=O)O)cc1	2.71 µM (inactive)	–
COC(CC1(CCNc2ccccc2)C(=O)N(COCC[Si](C)(C)C)c2ccccc21)OC (centres undefined)	17.2 µM (inactive)	–
Cc1cnc2sn(-c3ccc(Oc4ccccc4)cc3)c(=O)c2c1	23.8 µM (inactive)	–
C=C1C(=O)OC2C1CC[C@H](C)C13OC(=O)CC1[C@@]23C (some centres undefined)	–	GI50 [2]: > 100 µM (inactive); GI50 [3]: > 100 µM (inactive); GI50 [6]: > 100 µM (inactive); GI50 [7]: > 100 µM (inactive)

Compound	GI50 [1]	further results
NCCCN1c2ccccc2Sc2ccc(Cl)cc21	> 7.62 µM (inactive)	–
N#Cc1ccc(/N=N/N2CCCC2)cc1	> 100 µM (inactive)	–
O=[N+]([O-])c1cc2no[n+]([O-])c2cc1N1CCCCC1	9.29 µM (inactive)	–
Cc1ccc(-c2cc(N)n(-c3nc4c([nH]3)c(=O)n(C)c(=O)n4C)n2)cc1	6.95 µM (inactive)	–
O=C(/C=C/c1cccc(Br)c1)N1CCN(CCOC(c2ccccc2)c2ccccc2)CC1	26.5 µM (inactive)	–
O=C1C=C(c2c(-c3ccccc3)[nH]c3ccccc23)C(=O)N1c1ccccc1	6.73 µM (inactive)	–
CC(=O)OCC1OC(OC2CC3C(C)(C)C(O)CC[C@]3(C)C3CCC45CC4(CCC5[C@@H](C)CC(O)C(O)C(C)(C)O)[C@]23C)C(O)C(O)C1O (some centres undefined)	> 10 µM (inactive)	–
O=C1N/C(=N/N=C/C(O)C(O)C(O)C(O)CO)N/C1=C\c1ccco1 (centres undefined)	> 100 µM (inactive)	–
CCOC(=O)c1c(-c2[nH]c(C(=O)OCc3ccccc3)c(C)c2C(=O)OCC)[nH]c(C(=O)OCc2ccccc2)c1C	–	GI50 [2]: > 100 µM (inactive); GI50 [3]: > 100 µM (inactive); GI50 [4]: > 100 µM (inactive); GI50 [5]: > 100 µM (inactive); GI50 [6]: > 100 µM (inactive); GI50 [7]: 67 µM (inactive)
CN(Cc1cc(C(C)(C)C)cc(Br)c1O)Cc1cc(C(C)(C)C)cc(Br)c1O	4 µM (inactive)	–
CC1=C(C(=O)Nc2ccccc2)C(c2cccc3ccccc23)C(C(=O)Nc2ccccc2)=C(C)N1	–	GI50 [2]: 28.2 µM (inactive); GI50 [3]: 24.9 µM (inactive); GI50 [4]: 24 µM (inactive); GI50 [5]: 19.3 µM (inactive); GI50 [6]: 15.9 µM (inactive); GI50 [7]: 28.7 µM (inactive)
Nc1ccccc1/N=N/c1c(S(=O)(=O)O)cc2cc(S(=O)(=O)O)cc(O)c2c1O	> 100 µM (inactive)	–
CC(CC=O)Nc1nn2c(=O)c3ccccc3nc2s1 (centres undefined)	> 100 µM (inactive)	–
COc1cccc2c(=O)oc(-c3ccccc3C)nc12	21.5 µM (inactive)	–
CC(C)CCC[C@@H](C)[C@H]1CCC2C3CC=C4C[C@@H](Oc5c6ccccc6nc6ccccc56)CCC4C3CCC21 (some centres undefined)	> 50 µM (inactive)	–
